Data reported in patent US6288082A, “Substituted 3-cyanoquinolines” (priority 1999, dated 2001).
In brackets after ≈: the same amount, converted by molar mass. Several values for one entry are separate records, joined by “and”; a condition that tells them apart may be missing. Identical values can stand only once.

Columns and labels:
[1] = target: Epithelial Cell Kinase (ECK) (Homo sapiens, UniProt P29317); test: Inhibition of Epithelial Cell Kinase (ECK); type: biochemical; conditions: biotinylated peptide substrate, pH 7.2
Protocol: In this standard pharmacological test procedure, a biotinylated peptide substrate is first immobilized on neutravidin-coated microtiter plates. The test drug, the Epithelial Cell Kinase (ECK), Mg^++, sodium vanadate (a protein tyrosine phosphatase inhibitor), and an appropriate buffer to maintain pH (7.2) are then added to the immobilized substrate-containing microtiter wells. ATP is then added to initiate phosphorylation. After incubation, the assay plates are washed with a suitable buffer leaving behind phosphorylated peptide which is exposed to horse radish peroxidase (HRP)-conjugated anti-phosphotyrosine monoclonal antibody. The antibody-treated plates are washed again and the HRP activity in individual wells is quantified as a reflection of degree of substrate phosphorylation.

[2] = target: T1, Kinase insert Domain containing Receptor (KDR) (Homo sapiens, UniProt P35968); test: Inhibition of Kinase insert Domain containing Receptor (KDR; the catalytic domain of the VEGF receptor); type: biochemical; conditions: substrate E:Y 4:1, pH 7.2
T1 construct: KDR; the Catalytic Domain of the VEGF Receptor
Excerpt: Inhibition of Kinase Insert Domain Containing Receptor (KDR; the Catalytic Domain of the VEGF Receptor)
In this standard pharmacological test procedure, KDR protein is mixed, in the presence or absence of a inhibitor compound, with a substrate peptide to be phosphorylated (a copolymer of glutamic acid and tyrosine, E:Y: 4:1) and other cofactors such as Mg^++ and sodium vanadate (a protein tyrosine phosphatase inhibitor) in an appropriate buffer to maintain pH (7.2). ATP and a radioactive tracer (either P^32 -or P^33 -labeled ATP) is then add to initiate phosphorylation. After incubation, the radioactive phosphate associated with the acid-insoluble fraction of the assay mixture is then quantified as reflection of substrate phosphorylation.

[3] = target: Mitogen Activated Protein Kinase (Mek-Erk); test: Mitogen Activated Protein Kinase (MAPK) assay, coupled Mek-Erk; type: biochemical, human; conditions: MBP or Myc peptide substrate, pH 7.4
Protocol: Mitogen Activated Protein Kinase (MAPK) Assay
To evaluate inhibitors of the MAP (mitogen activated protein) kinase a two component coupled standard pharmacological test procedure, which measures phosphorylation of a serine/threonine residue in an appropriate sequence in the substrate in the presence and absence of a putative inhibitor, was used. Recombinant human MEK 1 (MAPKK) was first used to activate recombinant human ERK2 (MAPK) and the activated MAPK (ERK) was incubated with substrate (MBP peptide or MYC peptide) in the presence of ATP, Mg^+2 and radiolabeled ^33 P ATP. The phosphorylated peptide was captured on a P 81 phosphocellulose filter (paper filter or embedded in microtiter plate) washed and counted by scintillation methods.
The peptide substrates used in the assay are MBP, peptide substrate ([…]), or synthetic Myc substrate, ([…]·5 TFA. The recombinant enzymes used were prepared as GST fusion proteins of human ERK 2 and human MEK 1. Inhibitor samples were prepared as 10×stocks in 10% DMSO and an appropriate aliquot was used to deliver either 10 ug/ml for a single point screening dose or 100, 10, 1, and 0.1 uM final concentration for a dose response curve. Final DMSO concentrations were less than or equal to 1%.
The reaction was run as follows in 50 mM Tris kinase buffer, pH 7.4 in a reaction volume of 50 ul. The appropriate volume of kinase buffer and inhibitor sample was added to the tube. Appropriate dilution of enzyme was delivered to give 2-5 ug recombinant MAPK (Erk ) per tube. The inhibitor was incubated with MAPK (Erk) for 30 min at 0 deg. C. Recombinant Mek (MAPKK) (0.5-2.5 ug) or fully activated Mek (0.05-0.1 units) was added to activate the Erk and incubated for 30 min at 30° C. Then substrate and gamma ^33 P ATP was were added to give a final concentration of 0.5-1 mM MBPP or 250-500 uM Myc; 0.2-0.5 uCi gamma P 33 ATP/tube; 50 μM ATP final concentration. Samples were incubated at 30° C. for 30 minutes and the reaction was stopped by adding 25 μl of ice cold 10% TCA. After samples were chilled on ice for 30 min, 20 μl of sample was transferred onto P 81 phosphocellulose filter paper or appropriate MTP with embedded P 81 filter. Filter papers or MTP were washed 2 times with a large volume of 1% acetic acid, then 2 times with water. The filters or MTP were briefly air dried before addition of scintillant and samples were counted in the appropriate scintillation counter set up for reading ^33 P isotope. Samples included a positive control (activated enzyme plus substrate); a no enzyme control; a no substrate control; samples with different concentrations of putative inhibitor; and samples with reference inhibitors (other active compounds or non-specific inhibitors such as staurosporine or K252 B).
The raw data was captured as cpm. Sample replicates were averaged and corrected for background count. Mean cpm data was tabulated by group and % inhibition by a test compound was calculated as (corrected cpm control-corrected. cpm sample/control)×100=% inhibition. […] The results obtained for representative compounds of this invention are listed in TABLE 2 where there may be separate entries for the same compound; this is an indication that the compound was evaluated more than one time.

MDA-MB-435 = test: Inhibition of cancer cell growth as measured by cell number, MDA-MB-435; type: cell-based; conditions: Homo sapiens, MDA-MB-435, 48 h, MDA-MB-435, 48 hours exposure
Protocol: (§1) Inhibition of Cancer Cell Growth as Measured by Cell Number […] […] After 48 hours exposure to test compounds, cells were fixed with trichloroacetic acid, and stained with Sulforhodamine B. After washing with trichloroacetic acid, bound dye was solubilized in 10 mM Tris base and optical density was determined using plate reader. Under conditions of the assay the optical density is proportional to the number of cells in the well. […] The test procedure is described in details by Philip Skehan et. al, J.Natl. Canc. Inst., 82, 1107-1112 (1990). […] Information about some of the cell lines used in these test procedures is available from the American Type Tissue Collection: Cell Lines and Hybridomas, 1994 Reference Guide, 8th Edition.

A431 = test: Inhibition of cancer cell growth as measured by cell number, A431; type: cell-based; conditions: Homo sapiens, A-431, 48 h, A431, 48 hours exposure
Protocol: as §1

SK-BR3 = test: Inhibition of cancer cell growth as measured by cell number, SK-BR3; type: cell-based; conditions: Homo sapiens, SK-BR-3, 48 h, SK-BR3, 48 hours exposure
Protocol: as §1

SW620 = test: Inhibition of cancer cell growth as measured by cell number, SW620; type: cell-based; conditions: Homo sapiens, SW-620, 48 h, SW620, 48 hours exposure
Protocol: as §1

3T3 = test: Inhibition of cancer cell growth as measured by cell number, 3T3; type: cell-based; conditions: Mus musculus, NIH3T3; 3T3, 48 hours exposure
Protocol: as §1

3T3/c-erbb2 = test: Inhibition of cancer cell growth as measured by cell number, 3T3/c-erbb2; type: cell-based; conditions: 3T3/c-erbb2, 48 hours exposure
Protocol: as §1

[4] = target: T2, Epidermal Growth Factor Receptor Kinase (EGF-R) (Homo sapiens, UniProt P00533); test: Inhibition of Epidermal Growth Factor Receptor Kinase (EGF-R) Using Recombinant Enzyme; type: biochemical; conditions: for IC50: recombinant enzyme, RR-SRC peptide substrate
T2 construct: EGFR cDNA encoding amino acids 645-1186 preceded by Met-Ala-(His)6; Met-Ala-(His)6 (N); made in house; host or cells: Sf9 insect cells, recombinant baculovirus vHcEGFR52
Protocol: Inhibition of Epidermal Growth Factor Receptor Kinase (EGF-R) Using Recombinant Enzyme
Representative test compounds were evaluated for their ability to inhibit the phosphorylation of the tyrosine residue of a peptide substrate catalyzed by the enzyme epidermal growth factor receptor kinase. The peptide substrate (RR-SRC) has the sequence arg-arg-leu-ile-glu-asp-ala-glu-tyr-ala-ala-arg-gly. The enzyme used in this test procedure is the His-tagged cytoplasmic domain of EGFR. A recombinant baculovirus (vHcEGFR52) was constructed containing the EGFR cDNA encoding amino acids 645-1186 preceded by Met-Ala-(His)6. Sf9 cells in 100 mm plates were infected at an moi of 10 pfu/cell and cells were harvested 48 h post infection. A cytoplasmic extract was prepared using 1% Triton X-100 and applied to Ni-NTA column. After washing the column with 20 mM imidazole, HcEGFR was eluted with 250 mM imidazole (in 50 mM Na2 HPO4, pH 8.0, 300 mM NaCl). Fractions collected were dialyzed against 10 mM HEPES, pH 7.0, 50 mM NaCl, 10% glycerol, 1 ug/mL antipain and leupeptin and 0.1 mM Pefabloc SC. The protein was frozen in dry ice/methanol and stored -70° C.
Test compounds were made into 10 mg/mL stock solutions in 100% dimethylsulfoxide (DMSO). Prior to experiment, stock solutions were diluted to 500 uM with 100% DMSO and then serially diluted to the desired concentration with HEPES buffer (30 mM HEPES pH 7.4).
For the enzyme reaction, 10 uL of each inhibitor (at various concentrations) were added to each well of a 96-well plate. To this was added 3 uL of enzyme (1:10 dilution in 10 mM HEPES, pH 7.4 for final conc. of 1:120). This was allowed to sit for 10 min on ice and was followed by the addition of 5 ul peptide (80 uM final conc.), 10 ul of 4×Buffer (Table A), 0.25 uL ^33 P-ATP and 12 uL H2 O. The reaction was allowed to run for 90 min at room temperature and was followed by spotting the entire volume on to precut P81 filter papers. The filter discs were washed 2× with 0.5% phosphoric acid and radioactivity was measured using a liquid scintillation counter. […]
The inhibition data for representative compounds of the invention are shown below in TABLE 1. […] The % inhibition of the test compound was determined for at least three different concentrations and the IC50 value was evaluated from the dose response curve. The % inhibition was evaluated with the following formula: […]
where CPM(drug) is in units of counts per minute and is a number expressing the amount of radiolabled ATP (γ-^33 P) incorporated onto the RR-SRC peptide substrate by the enzyme after 90 minutes at room temperature in the presence of test compound as measured by liquid scintillation counting. CPM(control) is in units of counts per minute and was a number expressing the amount of radiolabled ATP (γ-^33 P) incorporated into the RR-SRC peptide substrate by the enzyme after 90 minutes at room temperature in the absence of test compound as measured by liquid scintillation counting. The CPM values were corrected for the background counts produced by ATP in the absence of the enzymatic reaction.

[5] = tested on: human colon carcinoma SW620; conditions: 3 mg/kg/dose IP days 1-20, Day 7
Protocol: In Vivo Inhibition of the Growth of Human Colon Carcinoma SW620
Human colon carcinoma SW620 cells (American Type Culture Collection, Rockville, Md. #CCL-227) were grown in vitro as described above. BALB/c nu/nu female mice (Charles River, Wilmington, Mass.) were used in this in vivo standard pharmacological test procedure. A unit of 7×10^6 cells were injected SC into mice. When tumors attained a mass of between 80 and 120 mg, the mice were randomized into treatment groups (day zero). Mice were treated IP once a day on days 1 through 20 post staging with doses of either 30, 10, 3 or 1 mg/kg/dose of the compound to be evaluated in 0.2% Klucel. Control animals received vehicle only. Tumor mass was determined every 7 days [(length×width^2)/2] for 28 days post staging. Relative tumor growth (Mean tumor mass on days 7, 14, 21, and 28 divided by the mean tumor mass on day zero) is determined for each treatment group. Statistical analysis (Student-t-test) of log relative tumor growth compares treated verses control group. A p-value (p≤0.05) indicates a statistically significant reduction in relative tumor growth of treated group compared to the vehicle control.

T2 sequence (P00533 669-1210): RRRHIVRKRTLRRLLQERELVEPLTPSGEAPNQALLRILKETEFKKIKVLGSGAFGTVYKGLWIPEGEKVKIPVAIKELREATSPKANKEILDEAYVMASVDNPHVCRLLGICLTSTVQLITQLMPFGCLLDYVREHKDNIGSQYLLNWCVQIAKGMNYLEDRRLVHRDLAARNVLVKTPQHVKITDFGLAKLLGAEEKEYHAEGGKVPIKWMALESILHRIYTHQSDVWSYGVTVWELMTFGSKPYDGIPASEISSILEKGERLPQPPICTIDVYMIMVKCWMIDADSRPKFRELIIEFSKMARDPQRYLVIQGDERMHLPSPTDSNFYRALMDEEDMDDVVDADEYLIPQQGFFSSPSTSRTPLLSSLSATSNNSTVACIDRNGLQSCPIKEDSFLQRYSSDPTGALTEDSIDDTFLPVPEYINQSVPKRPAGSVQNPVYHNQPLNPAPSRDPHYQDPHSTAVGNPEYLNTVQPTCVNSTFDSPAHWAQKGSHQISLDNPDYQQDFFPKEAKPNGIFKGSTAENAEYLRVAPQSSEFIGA
Epithelial Cell Kinase (ECK), sequence (P29317 24-976): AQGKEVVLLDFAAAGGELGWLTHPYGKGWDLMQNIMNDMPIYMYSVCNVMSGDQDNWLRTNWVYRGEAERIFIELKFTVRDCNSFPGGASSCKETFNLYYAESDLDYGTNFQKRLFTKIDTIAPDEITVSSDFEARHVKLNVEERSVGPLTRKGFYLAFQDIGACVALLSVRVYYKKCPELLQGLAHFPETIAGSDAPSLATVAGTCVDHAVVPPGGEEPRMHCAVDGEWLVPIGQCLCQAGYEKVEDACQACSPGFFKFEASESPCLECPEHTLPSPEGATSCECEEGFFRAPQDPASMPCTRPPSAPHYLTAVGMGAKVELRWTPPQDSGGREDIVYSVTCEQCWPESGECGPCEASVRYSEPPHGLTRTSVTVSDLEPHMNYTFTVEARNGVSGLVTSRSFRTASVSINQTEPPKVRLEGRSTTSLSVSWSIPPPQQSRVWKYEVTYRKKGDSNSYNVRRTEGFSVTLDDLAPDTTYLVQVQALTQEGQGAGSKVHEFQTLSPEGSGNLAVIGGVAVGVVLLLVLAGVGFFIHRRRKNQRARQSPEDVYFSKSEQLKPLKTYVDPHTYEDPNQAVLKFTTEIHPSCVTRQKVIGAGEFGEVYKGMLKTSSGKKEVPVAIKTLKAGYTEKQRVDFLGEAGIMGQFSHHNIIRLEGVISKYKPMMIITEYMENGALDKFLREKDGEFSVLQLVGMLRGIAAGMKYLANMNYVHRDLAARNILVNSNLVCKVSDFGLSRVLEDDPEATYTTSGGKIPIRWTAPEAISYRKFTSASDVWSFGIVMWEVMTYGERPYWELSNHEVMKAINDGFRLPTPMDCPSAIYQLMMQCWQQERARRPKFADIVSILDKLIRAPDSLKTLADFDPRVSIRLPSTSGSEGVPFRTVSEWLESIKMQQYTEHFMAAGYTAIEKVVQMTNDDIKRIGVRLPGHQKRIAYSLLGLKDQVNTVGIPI
T1 sequence (P35968 834-1162 limits assumed): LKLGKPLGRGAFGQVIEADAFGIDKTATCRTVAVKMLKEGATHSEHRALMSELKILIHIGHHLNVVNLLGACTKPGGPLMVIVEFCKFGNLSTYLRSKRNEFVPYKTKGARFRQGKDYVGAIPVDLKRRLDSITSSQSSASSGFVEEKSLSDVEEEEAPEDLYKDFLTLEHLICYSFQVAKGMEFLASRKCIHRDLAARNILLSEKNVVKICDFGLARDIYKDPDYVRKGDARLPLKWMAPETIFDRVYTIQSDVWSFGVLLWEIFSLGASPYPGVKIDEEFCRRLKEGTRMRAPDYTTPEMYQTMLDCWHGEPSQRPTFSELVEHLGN

## CCOc1cc2ncc(C#N)c(Nc3ccc4c(c3)CCC4=O)c2cc1OCC [Example 110, 6,7-Diethoxy-4-(1-oxo-indan-5-ylamino)-quinoline-3-carbonitrile]
[1]
  IC50: 0.155 µM and 0.036 µM
[2]
  IC50: > 77.4 µM
[3]
  IC50: > 100 µM and 50 µM
MDA-MB-435
  IC50: 0.028 µg/mL (≈ 0.0723 µM)
A431
  IC50: 0.0244 µg/mL (≈ 0.063 µM)
SK-BR3
  IC50: 0.0281 µg/mL (≈ 0.0725 µM)
SW620
  IC50: 0.0181 µg/mL (≈ 0.0467 µM)
3T3
  IC50: 0.0923 µg/mL (≈ 0.238 µM)
3T3/c-erbb2
  IC50: 0.0311 µg/mL (≈ 0.0803 µM)

## CCOc1cc2ncc(C#N)c(Nc3ccc4cc[nH]c4c3)c2cc1OCC [Example 101, 6,7-Diethoxy-4-(1H-indol-6-ylamino)-quinoline-3-carbonitrile]
[4]
  IC50: > 1 µM

## CCOc1cc2ncc(C#N)c(Nc3ccc4c(c3)C(=O)OC4)c2cc1OCC [Example 111, 6,7-Diethoxy-4-(3-oxo-1,3-dihydro-isobenzofuran-5-ylamino)-quinoline-3-carbonitrile]
[4]
  IC50: > 1 µM
[3]
  IC50: > 100 µM

## CCOc1cc2ncc(C#N)c(Nc3ccc4c(c3)OCCO4)c2cc1OCC [Example 105, 4-(2,3-Dihydro-benzo[1,4]dioxin-6-ylamino)-6,7-diethoxy-quinoline-3-carbonitrile]
[1]
  IC50: > 51.1 µM
[2]
  IC50: 76.6 µM
MDA-MB-435
  IC50: 0.235 µg/mL (≈ 0.6 µM)
A431
  IC50: 0.27 µg/mL (≈ 0.69 µM)
SK-BR3
  IC50: 0.281 µg/mL (≈ 0.718 µM)
SW620
  IC50: 0.411 µg/mL (≈ 1.05 µM)
3T3
  IC50: 0.853 µg/mL (≈ 2.18 µM)
3T3/c-erbb2
  IC50: 0.375 µg/mL (≈ 0.958 µM)

## CCOc1cc2ncc(C#N)c(Nc3ccc4c(c3)OCO4)c2cc1OCC [Example 98, 4-(Benzo[1,3]dioxol-5-ylamino)-6,7-diethoxy-quinoline-3-carbonitrile]
[2]
  IC50: 2.65 µM

## CCOc1cc2ncc(C#N)c(Nc3ccc4cn[nH]c4c3)c2cc1OCC [Example 99, 6,7-Diethoxy-4-(1H-indazol-6-ylamino)-quinoline-3-carbonitrile]
[5]
  Relative Tumor Growth Day 7: 3.80

## CCOc1cc2ncc(C#N)c(Nc3ccc4c(c3)C(=O)NCC(=O)N4C)c2cc1OCC [Example 127, 6,7-Diethoxy-4-(1-methyl-2,5-dioxo-2,3,4,5-tetrahydro-1H-benzo[e][1,4]diazepin-7-ylamino)-quinoline-3-carbonitrile]
[4]
  IC50: > 1 µM
[3]
  IC50: > 100 µM

## CCOc1cc2ncc(C#N)c(Nc3ccc4cn[nH]c4c3)c2cc1OC [Example 115, 7-Ethoxy-4-(indazol-6-ylamino)-6-methoxy-quinoline-3-carbonitrile]
[4]
  IC50: > 0.5 µM
[3]
  IC50: 25 µM

## CCOc1cc2ncc(C#N)c(Nc3ccc4c(c3)NCC4)c2cc1OCC [Example 96, 4-(2,3-Dihydro-1H-indol-6-ylamino)-6,7-diethoxy-quinoline-3-carbonitrile]
[4]; read-out: % Inh @ 0.5 μM
  inhibition at 0.5 µM: 6%
[4]
  IC50: > 10 µM
[1]
  IC50: > 53.5 µM
[2]
  IC50: 8.02 µM

## CCOc1cc2ncc(C#N)c(Nc3ccc4c(c3)CCC4)c2cc1OCC [Example 108, 6,7-Diethoxy-4-(indan-5-ylamino)-quinoline-3-carbonitrile]
3T3/c-erbb2
  IC50: 0.198 µg/mL (≈ 0.53 µM)
